Assay results: ChEMBL document CHEMBL5724696, “Autophagy assay results for EUbOPEN Chemogenomics Library” (2024)

Tests used:
Format in all cases: functional, Homo sapiens
U2OS [1] = assay: (§1) Here: values are normalized to the negative (DMSO; defined as 0% autophagy induction) and positive (250nM Torin1; mTOR inhibitor; defined as maximal inducer of autophagy = 100%) control compounds and represented as % of autophagy induction. […] The impact of autophagy induction on cells is complex and depends on the affected target. As such, the magnitude of a phenotype may not be equally mirrored in the %-value of autophagy induction and vice versa. The dynamics of the induction may indicate the mode of activation: e.g. activation via phosphorylation or a signaling cascade may occur fast, while activation via transcription factors may take considerably longer. […] Of note, treatment concentrations may be sub-optimal for specific compounds, leading to false negative annotations.; settings: Culturing Media DMEM, 1 % Penicillin/Streptomycin, 10% Fetal bovin serum Add-On: No, Screening Media Control DMEM, Screening Media Samples DMEM
TERT-RPE1 = assay: as §1; settings: Culturing Media DMEM/F12 (1:1), 1 % Penicillin/Streptomycin, 10% Fetal bovin serum Add-On: No, Screening Media Control DMEM/F12 (1:1), Screening Media Samples DMEM/F12 (1:1)
U2OS [2] = assay: as §1; settings: Culturing Media DMEM, 1 % Penicillin/Streptomycin, 10% Fetal bovin serum Add-On: No, Screening Media Control DMEM, Screening Media Samples DMEM; remark: listed apart in the source
[3] = Compound Concentration 0.5 uM, Timepoint 12 hours
[4] = Compound Concentration 0.5 uM, Timepoint 24 hours
[5] = Compound Concentration 0.5 uM, Timepoint 36 hours
[6] = Compound Concentration 0.5 uM, Timepoint 60 hours
[7] = Compound Concentration 2 uM, Timepoint 12 hours
[8] = Compound Concentration 2 uM, Timepoint 24 hours
[9] = Compound Concentration 2 uM, Timepoint 36 hours
[10] = Compound Concentration 2 uM, Timepoint 60 hours
[11] = Compound Concentration 10 uM, Timepoint 12 hours
[12] = Compound Concentration 10 uM, Timepoint 24 hours
[13] = Compound Concentration 10 uM, Timepoint 36 hours
[14] = Compound Concentration 10 uM, Timepoint 60 hours

Compound | autophagy induction (U2OS [1]; [3]) [%] | autophagy induction (U2OS [1]; [4]) [%] | autophagy induction (U2OS [1]; [5]) [%] | autophagy induction (U2OS [1]; [6]) [%] | autophagy induction (U2OS [1]; [7]) [%] | autophagy induction (U2OS [1]; [8]) [%] | autophagy induction (U2OS [1]; [9]) [%] | autophagy induction (U2OS [1]; [10]) [%] | autophagy induction (U2OS [1]; [11]) [%] | autophagy induction (U2OS [1]; [12]) [%] | autophagy induction (U2OS [1]; [13]) [%] | autophagy induction (U2OS [1]; [14]) [%] | autophagy induction (TERT-RPE1; [3]) [%] | autophagy induction (TERT-RPE1; [4]) [%] | autophagy induction (TERT-RPE1; [5]) [%] | autophagy induction (TERT-RPE1; [6]) [%] | autophagy induction (TERT-RPE1; [7]) [%] | autophagy induction (TERT-RPE1; [8]) [%] | autophagy induction (TERT-RPE1; [9]) [%] | autophagy induction (TERT-RPE1; [10]) [%] | further results
CCOC(=O)c1cc(C#N)c(N2CCC(C(=O)NS(=O)(=O)Cc3ccccc3)CC2)nc1C | -5.45 | -2.451 | -3.099 | -2.587 | 4.284 | 0.2818 | 0.3824 | -0.02347 | -3.626 | -2.74 | -1.363 | -0.00442 | -6.976 | -10.3002 | -8.825 | -14.4044 | -3.0862 | -5.808 | -6.285 | -11.624 | autophagy induction (TERT-RPE1; [11]): -2.8574%; autophagy induction (TERT-RPE1; [12]): -4.514%; autophagy induction (TERT-RPE1; [13]): -6.439%; autophagy induction (TERT-RPE1; [14]): -9.708%; autophagy induction (U2OS [2]; [3]): -1.238%; autophagy induction (U2OS [2]; [4]): -0.869%; autophagy induction (U2OS [2]; [5]): -0.6019%; autophagy induction (U2OS [2]; [6]): -13.2748%; autophagy induction (U2OS [2]; [7]): -11.375%; autophagy induction (U2OS [2]; [8]): -8.508%; autophagy induction (U2OS [2]; [9]): -7.086%; autophagy induction (U2OS [2]; [10]): -3.832%; autophagy induction (U2OS [2]; [11]): -0.3683%; autophagy induction (U2OS [2]; [12]): 1.86%; autophagy induction (U2OS [2]; [13]): -9.343%; autophagy induction (U2OS [2]; [14]): -16.8017%
Cc1csc(NC(=O)c2cc(F)cc(Oc3cncnc3)c2)n1 | -6.672 | -2.592 | -1.939 | -1.765 | -5.1627 | -3.72 | -2.553 | -1.843 | -2.289 | -0.7242 | -0.5379 | -1.609 | -6.573 | -11.4508 | -15.1452 | -20.0235 | -3.733 | -9.437 | -10.535 | -13.1148 | autophagy induction (TERT-RPE1; [11]): -2.429%; autophagy induction (TERT-RPE1; [12]): -5.833%; autophagy induction (TERT-RPE1; [13]): -5.079%; autophagy induction (TERT-RPE1; [14]): -4.061%; autophagy induction (U2OS [2]; [3]): -16.3524%; autophagy induction (U2OS [2]; [4]): -14.7733%; autophagy induction (U2OS [2]; [5]): -11.9866%; autophagy induction (U2OS [2]; [6]): -8.75%; autophagy induction (U2OS [2]; [7]): -9.821%; autophagy induction (U2OS [2]; [8]): -11.197%; autophagy induction (U2OS [2]; [9]): -11.4826%; autophagy induction (U2OS [2]; [10]): -11.3338%; autophagy induction (U2OS [2]; [11]): -1.626%; autophagy induction (U2OS [2]; [12]): -3.326%; autophagy induction (U2OS [2]; [13]): -2.706%; autophagy induction (U2OS [2]; [14]): -7.422%
CCCCN(CCCC)C(=O)CN1C[C@@H](c2ccc3c(c2)OCO3)[C@H](C(=O)O)[C@H]1c1ccc(OC)cc1 | -1.434 | -1.039 | -0.6288 | -0.1138 | -9.274 | -4.861 | -2.29 | -1.949 | 6.695 | 2.81 | 1.829 | -0.9275 | -5.689 | -7.876 | -10.2076 | -16.9579 | -2.05 | -6.33 | -9.375 | -15.3533 | autophagy induction (TERT-RPE1; [11]): 0.4134%; autophagy induction (TERT-RPE1; [12]): 0.2558%; autophagy induction (TERT-RPE1; [13]): -0.8322%; autophagy induction (TERT-RPE1; [14]): -6.302%; autophagy induction (U2OS [2]; [3]): -15.0632%; autophagy induction (U2OS [2]; [4]): -6.645%; autophagy induction (U2OS [2]; [5]): -7.125%; autophagy induction (U2OS [2]; [6]): -16.2807%; autophagy induction (U2OS [2]; [7]): -9.31%; autophagy induction (U2OS [2]; [8]): -9.369%; autophagy induction (U2OS [2]; [9]): -11.2096%; autophagy induction (U2OS [2]; [10]): -4.989%; autophagy induction (U2OS [2]; [11]): 9.199%; autophagy induction (U2OS [2]; [12]): 8.705%; autophagy induction (U2OS [2]; [13]): 6.119%; autophagy induction (U2OS [2]; [14]): 4.931%
C/C(=N\NC(=O)[C@@H]1C(=O)NC[C@H]1c1ccccc1)c1cccc(Br)c1 | -3.442 | 0.5164 | 1.385 | -0.9425 | -6.368 | -5.034 | -3.37 | -2.754 | -1.379 | -1.755 | -0.957 | -1.418 | 3.657 | -1.179 | -5.656 | -7.294 | -6.467 | -9.581 | -11.1295 | -14.064 | autophagy induction (TERT-RPE1; [11]): -5.576%; autophagy induction (TERT-RPE1; [12]): -6.043%; autophagy induction (TERT-RPE1; [13]): -7.363%; autophagy induction (TERT-RPE1; [14]): -9.435%; autophagy induction (U2OS [2]; [3]): 9.666%; autophagy induction (U2OS [2]; [4]): 0.07709%; autophagy induction (U2OS [2]; [5]): 4.021%; autophagy induction (U2OS [2]; [6]): -3.426%; autophagy induction (U2OS [2]; [7]): -4.579%; autophagy induction (U2OS [2]; [8]): -6.454%; autophagy induction (U2OS [2]; [9]): -2.749%; autophagy induction (U2OS [2]; [10]): -11.0743%; autophagy induction (U2OS [2]; [11]): -8.587%; autophagy induction (U2OS [2]; [12]): 1.184%; autophagy induction (U2OS [2]; [13]): -3.458%; autophagy induction (U2OS [2]; [14]): -5.559%
